Measurements: patent US20070232563A1, “Method for Enhancing Biological Activity and/or Expanding Suitable Region for Biological Activity of Living Body Contacting with Aqueous Environment” (Kabushiki Kaisha Hayashibara Seibutsu Kagaku Kenky, priority 2004, published 2007)

Key:
[1] = test system: crucian (Carassium cuvieri); assay: Removing fishy smell of freshwater fish: activity and sashimi panel; assay type: in vivo, Carassius cuvieri; settings: macroscopic observation; bred three days; each ingredient 1 (w/v)%
Method: Two per group of living crucian (Carassium cuvieri) with body size in the range of 15 to 20 cm were bred at ambient temperature in an aquarium filled with 10 L of an aqueous solution containing 1 w/v % mineral (solar salt) and 1 w/v % α,α-trehalose or α-maltosyl α,α-trehalose, on a dry solid basis, for three days. Waters containing either of mineral, α,α-trehalose or α-maltosyl α,α-trehalose as references and water without any mineral and saccharides as a control were prepared to breed the fishes similarly as above. The fishes were macroscopically observed their activity, and then prepated into sashimi. Twenty panels were allowed to taste them to judge their flavor and taste (fishy smell) in such a manner of comparing with references by the following four judgment criterions; “good”: no fishy smell; “slightly good”: fishy smell is weaker than the references; “normal”: fishy smell is equal to the references; and “bad”: fishy smell is stronger than the references.

[2] = test system: unpolished rice; assay: Germination of unpolished rice in aqueous mineral solution; assay type: in vivo
Method: Suitable mineral range of aqueous mineral solutions containing saccharides was examined by using unpolished rice as an agricultural product. In detail, a commercialized purified salt as a mineral was dissolved in tap water to give a final concentration of 0.5, 1.0, 1.5, or 2.0 as described in the following Table 6. α,α-Trehalose or α-maltosyl α,α-trehalose was dissolved in the resulting solutions to give a final concentration of 1 w/v %, on a dry solid basis. Absorbent cotton was allowed to absorb the resulting solution in an appropriate amount and placed in a plastic laboratory dish with a cover. Commercialized unpolished rice grains were placed on the cotton in the dish by 20 grains per group and kept at ambient temperature (25° C.) under a light-shaded condition by covering with a black cloth. As controls, an aqueous mineral solution without saccharides, and water without saccharides and minerals were prepared. […] Effective concentration of α,α-trehalose or α-maltosyl α,α-trehalose on expanding suitable region for biological activity of unpolished rice grains were determined by examining the number of germinated unpolished rice grains and germination time as an index in accordance with the method in Experiment 6 in the aqueous mineral solution with mineral concentration of 1.5 w/v %, where α,α-trehalose or α-maltosyl α,α-trehalose was effective in Experiment 6, containing α,α-trehalose or α-maltosyl α,α-trehalose in a concentration of 0.01, 0.1, 1, 2, 3, 4 or 6 w/v %, on a dry solid basis. As a control, water without saccharides or minerals was used.

[3] = test system: alfalfa; assay: Cultivation of sprout food (alfalfa) in aqueous mineral solution: stem extension, flavor and taste panel; assay type: in vivo; settings: aerial part (stem) height vs water control; each ingredient 1 (w/v)%; three days, 18° C.
Description: Absorbent cotton was allowed to absorb aqueous solution containing on a dry solid basis 1 w/v % of mineral (sodium chloride) and 1 w/v % of α,α-trehalose or α-maltosyl α,α-trehalose and placed in a transparent container. One hundred per group commercialized alfalfa seeds were placed in the container. As references, waters containing either of mineral, α,α-trehalose or α-maltosyl α,α-trehalose were used. As a control, water was used. After covered with a transparent lid, the container was placed in a room under a borrowed light at 18° C. for three days to cultivate alfalfa. The grown alfalfa plants were measured to calculate average value of aerial part (stem) height. Relative extension rate was calculated in such a manner of comparing the average value of each sample with that of control. In addition, 20 panels were judged in view of flavor and taste in such a manner of comparing each sample with control cultivated in water.

[4] = Experiment 7, mineral 1.5 w/v %, saccharide 0.01 w/v %, 48 hours
[5] = Experiment 7, mineral 1.5 w/v %, saccharide 0.01 w/v %, 72 hours
[6] = Experiment 7, mineral 1.5 w/v %, saccharide 0.01 w/v %, 96 hours
[7] = Experiment 7, mineral 1.5 w/v %, saccharide 0.01 w/v %, 120 hours
[8] = Experiment 7, mineral 1.5 w/v %, saccharide 0.1 w/v %, 48 hours
[9] = Experiment 7, mineral 1.5 w/v %, saccharide 0.1 w/v %, 72 hours
[10] = Experiment 7, mineral 1.5 w/v %, saccharide 0.1 w/v %, 96 hours
[11] = Experiment 7, mineral 1.5 w/v %, saccharide 0.1 w/v %, 120 hours
[12] = Experiment 7, mineral 1.5 w/v %, saccharide 1 w/v %, 48 hours
[13] = Experiment 7, mineral 1.5 w/v %, saccharide 1 w/v %, 72 hours
[14] = Experiment 7, mineral 1.5 w/v %, saccharide 1 w/v %, 96 hours
[15] = Experiment 7, mineral 1.5 w/v %, saccharide 1 w/v %, 120 hours
[16] = Experiment 7, mineral 1.5 w/v %, saccharide 2 w/v %, 48 hours
[17] = Experiment 7, mineral 1.5 w/v %, saccharide 2 w/v %, 72 hours
[18] = Experiment 7, mineral 1.5 w/v %, saccharide 2 w/v %, 96 hours
[19] = Experiment 7, mineral 1.5 w/v %, saccharide 2 w/v %, 120 hours
[20] = Experiment 7, mineral 1.5 w/v %, saccharide 3 w/v %, 48 hours
[21] = Experiment 7, mineral 1.5 w/v %, saccharide 3 w/v %, 72 hours
[22] = Experiment 7, mineral 1.5 w/v %, saccharide 3 w/v %, 96 hours
[23] = Experiment 7, mineral 1.5 w/v %, saccharide 3 w/v %, 120 hours
[24] = Experiment 7, mineral 1.5 w/v %, saccharide 4 w/v %, 48 hours
[25] = Experiment 7, mineral 1.5 w/v %, saccharide 4 w/v %, 72 hours
[26] = Experiment 7, mineral 1.5 w/v %, saccharide 4 w/v %, 96 hours
[27] = Experiment 7, mineral 1.5 w/v %, saccharide 4 w/v %, 120 hours
[28] = Experiment 7, mineral 1.5 w/v %, saccharide 6 w/v %, 48 hours
[29] = Experiment 7, mineral 1.5 w/v %, saccharide 6 w/v %, 72 hours
[30] = Experiment 7, mineral 1.5 w/v %, saccharide 6 w/v %, 96 hours
[31] = Experiment 7, mineral 1.5 w/v %, saccharide 6 w/v %, 120 hours
[32] = mineral 0.5 w/v %, saccharide 1 w/v %, 24 hours, 20 grains
[33] = mineral 0.5 w/v %, saccharide 1 w/v %, 48 hours, 20 grains
[34] = mineral 0.5 w/v %, saccharide 1 w/v %, 72 hours, 20 grains
[35] = mineral 0.5 w/v %, saccharide 1 w/v %, 96 hours, 20 grains
[36] = mineral 0.5 w/v %, saccharide 1 w/v %, 120 hours, 20 grains
[37] = mineral 1.0 w/v %, saccharide 1 w/v %, 24 hours, 20 grains
[38] = mineral 1.0 w/v %, saccharide 1 w/v %, 48 hours, 20 grains
[39] = mineral 1.0 w/v %, saccharide 1 w/v %, 72 hours, 20 grains
[40] = mineral 1.0 w/v %, saccharide 1 w/v %, 96 hours, 20 grains
[41] = mineral 1.0 w/v %, saccharide 1 w/v %, 120 hours, 20 grains
[42] = mineral 1.5 w/v %, saccharide 1 w/v %, 24 hours, 20 grains
[43] = mineral 1.5 w/v %, saccharide 1 w/v %, 48 hours, 20 grains
[44] = mineral 1.5 w/v %, saccharide 1 w/v %, 72 hours, 20 grains
[45] = mineral 1.5 w/v %, saccharide 1 w/v %, 96 hours, 20 grains
[46] = mineral 1.5 w/v %, saccharide 1 w/v %, 120 hours, 20 grains
[47] = mineral 2.0 w/v %, saccharide 1 w/v %, 24 hours, 20 grains
[48] = mineral 2.0 w/v %, saccharide 1 w/v %, 48 hours, 20 grains
[49] = mineral 2.0 w/v %, saccharide 1 w/v %, 72 hours, 20 grains
[50] = mineral 2.0 w/v %, saccharide 1 w/v %, 96 hours, 20 grains
[51] = mineral 2.0 w/v %, saccharide 1 w/v %, 120 hours, 20 grains

OC[C@H]1O[C@H](O[C@H]2O[C@H](CO)[C@@H](O)[C@H](O)[C@H]2O)[C@H](O)[C@@H](O)[C@@H]1O [α,α-Trehalose, α,α-trehalose]
Activity of Carassius cuvieri [1]: Good | Germinated grains (Number) [2, 4]: 0 | Germinated grains (Number) [2, 5]: 1 | Germinated grains (Number) [2, 6]: 2 | Germinated grains (Number) [2, 7]: 3 | Germinated grains (Number) [2, 8]: 0 | Germinated grains (Number) [2, 9]: 2 | Germinated grains (Number) [2, 10]: 5 | Germinated grains (Number) [2, 11]: 6 | Germinated grains (Number) [2, 12]: 1 | Germinated grains (Number) [2, 13]: 4 | Germinated grains (Number) [2, 14]: 6 | Germinated grains (Number) [2, 15]: 6 | Germinated grains (Number) [2, 16]: 3 | Germinated grains (Number) [2, 17]: 6 | Germinated grains (Number) [2, 18]: 7 | Germinated grains (Number) [2, 19]: 7 | Germinated grains (Number) [2, 20]: 3 | Germinated grains (Number) [2, 21]: 6 | Germinated grains (Number) [2, 22]: 6 | Germinated grains (Number) [2, 23]: 6 | Germinated grains (Number) [2, 24]: 1 | Germinated grains (Number) [2, 25]: 6 | Germinated grains (Number) [2, 26]: 6 | Germinated grains (Number) [2, 27]: 6 | Germinated grains (Number) [2, 28]: 0 | Germinated grains (Number) [2, 29]: 2 | Germinated grains (Number) [2, 30]: 2 | Germinated grains (Number) [2, 31]: 2 | Germinated grains (Number) [2, 32]: 0 | Germinated grains (Number) [2, 33]: 20 | Germinated grains (Number) [2, 34]: 20 | Germinated grains (Number) [2, 35]: 20 | Germinated grains (Number) [2, 36]: 20 | Germinated grains (Number) [2, 37]: 0 | Germinated grains (Number) [2, 38]: 17 | Germinated grains (Number) [2, 39]: 20 | Germinated grains (Number) [2, 40]: 20 | Germinated grains (Number) [2, 41]: 20 | Germinated grains (Number) [2, 42]: 0 | Germinated grains (Number) [2, 43]: 1 | Germinated grains (Number) [2, 44]: 4 | Germinated grains (Number) [2, 45]: 6 | Germinated grains (Number) [2, 46]: 6 | Germinated grains (Number) [2, 47]: 0 | Germinated grains (Number) [2, 48]: 0 | Germinated grains (Number) [2, 49]: 0 | Germinated grains (Number) [2, 50]: 0 | Germinated grains (Number) [2, 51]: 0 | Relative extension (%) [3]: 101%

OC[C@H]1O[C@H](O[C@H]2O[C@H](CO)[C@@H](O[C@H]3O[C@H](CO)[C@@H](O[C@H]4O[C@H](CO)[C@@H](O)[C@H](O)[C@H]4O)[C@H](O)[C@H]3O)[C@H](O)[C@H]2O)[C@H](O)[C@@H](O)[C@@H]1O [α-Maltosyl α,α-trehalose, α-maltosyl α,α-trehalose]
Activity of Carassius cuvieri [1]: Good | Germinated grains (Number) [2, 4]: 0 | Germinated grains (Number) [2, 5]: 2 | Germinated grains (Number) [2, 6]: 2 | Germinated grains (Number) [2, 7]: 2 | Germinated grains (Number) [2, 8]: 0 | Germinated grains (Number) [2, 9]: 2 | Germinated grains (Number) [2, 10]: 4 | Germinated grains (Number) [2, 11]: 5 | Germinated grains (Number) [2, 12]: 1 | Germinated grains (Number) [2, 13]: 3 | Germinated grains (Number) [2, 14]: 5 | Germinated grains (Number) [2, 15]: 5 | Germinated grains (Number) [2, 16]: 1 | Germinated grains (Number) [2, 17]: 6 | Germinated grains (Number) [2, 18]: 6 | Germinated grains (Number) [2, 19]: 6 | Germinated grains (Number) [2, 20]: 1 | Germinated grains (Number) [2, 21]: 4 | Germinated grains (Number) [2, 22]: 5 | Germinated grains (Number) [2, 23]: 5 | Germinated grains (Number) [2, 24]: 0 | Germinated grains (Number) [2, 25]: 3 | Germinated grains (Number) [2, 26]: 3 | Germinated grains (Number) [2, 27]: 3 | Germinated grains (Number) [2, 28]: 0 | Germinated grains (Number) [2, 29]: 0 | Germinated grains (Number) [2, 30]: 1 | Germinated grains (Number) [2, 31]: 1 | Germinated grains (Number) [2, 32]: 0 | Germinated grains (Number) [2, 33]: 15 | Germinated grains (Number) [2, 34]: 19 | Germinated grains (Number) [2, 35]: 20 | Germinated grains (Number) [2, 36]: 20 | Germinated grains (Number) [2, 37]: 0 | Germinated grains (Number) [2, 38]: 3 | Germinated grains (Number) [2, 39]: 10 | Germinated grains (Number) [2, 40]: 16 | Germinated grains (Number) [2, 41]: 16 | Germinated grains (Number) [2, 42]: 0 | Germinated grains (Number) [2, 43]: 1 | Germinated grains (Number) [2, 44]: 3 | Germinated grains (Number) [2, 45]: 5 | Germinated grains (Number) [2, 46]: 5 | Germinated grains (Number) [2, 47]: 0 | Germinated grains (Number) [2, 48]: 0 | Germinated grains (Number) [2, 49]: 0 | Germinated grains (Number) [2, 50]: 0 | Germinated grains (Number) [2, 51]: 0 | Relative extension (%) [3]: 105%
